Results from patent publication US20240239802A1, “CRYSTAL FORM OF PYRROLOPYRIMIDINE COMPOUND AND PREPARATION METHOD FOR CRYSTAL FORM” (ZHEJIANG LONGCHARM BIO-TECH PHARMA. CO., LTD., priority 2021, published 2024).
Each block holds one compound with its values, some of them ahead of it.

Assays:
[1] = Competitive experiment of crystal form B and crystal form C (suspension in methyl tert-butyl ether); assay type: physicochemical
Procedure: Three groups of 30 mg crystal form B and 30 mg crystal form C compounds were respectively added to different 2.0 mL glass vials, and 0.6 mL methyl tert-butyl ether was added to obtain a suspension, and the suspension samples were placed in the magnetic heating stirrer was stirred at 20° C., 40° C. and 60° C. for 16 hours, the suspension was centrifuged to obtain a white solid, and the crystal form C of the compound of formula (I) was obtained by vacuum drying to constant weight.

[2] = test system: human B-cell lymphoma OCI-LY10 cells; assay: OCI-LY10 SCID mouse subcutaneous xenograft tumor model; assay type: in vivo, SCID mice; conditions: for T/C / TGI: Day 20; for Tumor volume (Day 0) / Tumor volume (Day 20): Mean ± SEM
Procedure: OCI-LY10SCID mouse xenograft tumor model:
Experimental Method: Subcutaneous Xenograft Tumor Model in Mice with Human B-Cell Lymphoma
Tumor cells in the logarithmic growth phase were collected and resuspended in IMDM basal medium. Matrigel was added to adjust the concentration of cells to 4×10^7/Ml. Under sterile conditions, SCID mice were inoculate with cell suspension subcutaneously on the right back at a concentration of 4×10^6/0.1 mL/mouse. When the animal tumor reached about 131.55-227.87 mm^3, the tumor-bearing mice were divided into 5 groups according to the size of the tumor volume, with 8 […] in each group. On the day of the experiment, the animals were given corresponding drugs according to the groups.
During the experiment, the body weight and tumor size of the animals were measured 3 times a week, and the clinical symptoms of the animals were observed and recorded every day, and each administration was referred to the last weighed animal body weight.
The length (a) and width (b) of the tumor were measured with a digital vernier caliper, and tumor volume (Tumor volume, TV) was calculated according to the formula below: […]

[3] = Solid stability test (XRPD) under high temperature, high humidity and strong light; assay type: physicochemical
Procedure: According to the “Guiding Principles for Stability Testing of Raw Materials and Preparations” (Chinese Pharmacopoeia 2015 Edition Four General Rules 9001), the crystal form C of the compound of formula (I) was investigated for its stability under high temperature (60° C., open), high humidity (a. room temperature/relative humidity 92.5%, open; b. 40° C./75% relative humidity, open; c. 60° C./75% relative humidity, open) and the stability under strong light (5000 1×, airtight).
The crystal form C (15 mg) of the compound of formula (I) is weighed and placed on the bottom of the glass sample bottle to be spread into a thin layer. Samples placed under high-temperature and high-humidity conditions are sealed with aluminum foil, and small holes are formed on the aluminum foil to ensure that the samples can fully contact with the ambient air; and the sample placed under the strong illumination condition is sealed by a threaded bottle cap. Samples placed under different conditions were sampled and tested (XRPD) on the 5th day, 10th day, and 1 month. The test results were compared with the initial test results on day 0.

[4] = Hygroscopicity research by dynamic vapor adsorption (DVS); assay type: physicochemical; conditions: 25° C. and 80% RH
Procedure: The vapor adsorption analysis (DVS) method of this application.
Instrument model: SMS DVS Advantage dynamic vapor adsorption instrument
Test conditions: Take a sample (10-15 mg) and place it in a DVS sample tray for testing.
The detailed DVS parameters are as follows:
Balance: dm/dt=0.01%/min (shortest: 10 min, longest: 180 min)
RH (%) test range: 0%-90%-0%
SMS DVS Advantage dynamic vapor adsorption instrument
Taking 10-15 mg of compound crystal form C of formula (I) and placing it in a DVS sample tray for testing.

[5] = Pharmacokinetics (intravenous) in CD-1 mice; assay type: in vivo; conditions: for AUCu: AUCu = AUC0-inf × Unbound PPB (Mouse)
Procedure: The compound of formula (I) and the reference example were mixed with vehicle 0.10 mg/mL in 10% NMP/60% PEG400/30% H2O, vortexed and sonicated to prepare a 0.1 mg/mL clear solution. Select CD-1 male mice aged 7 to 10 weeks and administer the candidate compound solution intravenously at a dose of 0.21 mg/kg.
The whole blood was collected for a certain period of time to prepare plasma, and the drug concentration was analyzed by LC-MS/MS method. Pharmacokinetic parameters were calculated by Phoenix WinNonlin software (Pharsight, USA).

[6] = Unbound PPB (Rat in vivo test PPB); assay type: in vitro ADME
[7] = Pharmacokinetics (oral) in SD rats; assay type: in vivo; conditions: for AUCu: 1.9 / 1.8 mg/kg, AUCu = AUC0-inf × Unbound PPB (Rat in vivo test PPB)
Procedure: The compound of formula (I) and the reference example were mixed with vehicle 10% NMP/60% PEG400/30% H2O, vortexed and sonicated to prepare a 2 mg/mL clear solution. SD rats aged 7 to 10 weeks were selected, and the candidate compound solution was administered orally.
Whole blood was collected for a certain period of time to prepare plasma, and the drug concentration was analyzed by LC-MS/MS method, and the pharmacokinetic parameters were calculated by Phoenix WinNonlin software (Pharsight, USA).

[8] = Pharmacokinetics (intravenous) in SD rats; assay type: in vivo; conditions: for AUCu: 0.51 / 0.49 mg/kg, AUCu = AUC0-inf × Unbound PPB (Rat in vivo test PPB)
Procedure: (§1) The compound of formula (I) and the reference example were mixed with vehicle 0.10 mg/mL in 10% NMP/60% PEG400/30% H2O, vortexed and sonicated to prepare a 0.5 mg/mL clear solution. SD rats aged 7 to 10 weeks were selected and given the candidate compound solution intravenously. Whole blood was collected for a certain period of time to prepare plasma, and the drug concentration was analyzed by LC-MS/MS. Pharmacokinetic parameters were calculated with Phoenix WinNonlin software (Pharsight, USA).

[9] = Pharmacokinetics (oral administration) in CD-1 mice; assay type: in vivo; conditions: for AUCu: AUCu = AUC0-inf × Unbound PPB (Mouse)
Procedure: as §1, with “vehicle” for “vehicle 0.10 mg/mL in”, “0.6” for “0.5”, “Male CD-1 mice” for “SD rats”, “selected,” for “selected”, “and” for “and given”, “was administered orally by gavage at a dose of 3.1 mg/kg.” for “intravenously.”

Unbound PPB (Mouse) = assay type: in vitro ADME
BTK^C481S = BTK^C481S (Homo sapiens (Human), UniProt Q06187, C481S); assay: BTK enzyme activity test (33P-ATP filtration-binding); assay type: biochemical
Sequence of BTK^C481S (Q06187 whole entry C481S): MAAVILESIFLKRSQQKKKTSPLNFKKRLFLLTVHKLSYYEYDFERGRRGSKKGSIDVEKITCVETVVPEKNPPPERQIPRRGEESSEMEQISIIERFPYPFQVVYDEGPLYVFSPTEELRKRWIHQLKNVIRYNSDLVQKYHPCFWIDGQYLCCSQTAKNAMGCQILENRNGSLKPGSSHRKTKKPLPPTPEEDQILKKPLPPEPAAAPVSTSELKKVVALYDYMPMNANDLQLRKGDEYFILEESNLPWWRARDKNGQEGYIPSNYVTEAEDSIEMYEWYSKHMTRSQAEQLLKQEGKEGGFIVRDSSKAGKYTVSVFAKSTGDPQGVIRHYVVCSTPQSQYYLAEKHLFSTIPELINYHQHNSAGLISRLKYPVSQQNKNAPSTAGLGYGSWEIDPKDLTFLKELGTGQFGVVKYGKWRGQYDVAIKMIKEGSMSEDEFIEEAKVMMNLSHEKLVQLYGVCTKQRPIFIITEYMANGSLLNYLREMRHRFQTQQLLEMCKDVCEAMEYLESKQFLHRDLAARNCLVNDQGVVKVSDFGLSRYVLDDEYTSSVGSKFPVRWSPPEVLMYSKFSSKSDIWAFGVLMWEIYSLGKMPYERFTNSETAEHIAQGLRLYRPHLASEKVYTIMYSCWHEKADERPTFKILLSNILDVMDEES
Procedure: The specific experimental process of BTK enzyme activity test is as follows:
Buffer: 20 mM hydroxyethylpiperazine ethylsulfuric acid (Hepes) (pH 7.5), 10 mM magnesium chloride, 1 mM ethylene glycol bisaminoethyl ether tetraacetic acid (EGTA), 0.02% polyoxyethylene lauryl ether (Brij35), 0.02 mg/mL BSA, 0.1 mM sodium vanadate (Na3VO4), 2 mM dithiothreitol (DTT), 1% DMSO, 200 μM adenosine triphosphate (ATP).
1. Configuring the substrate in the newly prepared reaction buffer
2. Adding the required cofactors to the above substrate solution
3. Adding the kinase BTK^C481S to the above substrate solution and mixing well
4. Adding the compound dissolved in DMSO to the kinase reaction mixture through
Echo550 (Acoustic technology; nanoliter range), and incubating at room temperature for 20 minutes
5. Adding ^33P-ATP (with a specific activity of 10 μCi/μL) into the reaction mixture to initiate the reaction
6. Incubating at room temperature for 2 hours
7. Detection of radioactivity by filtration-binding method
8. Kinase activity data represent the percentage of remaining kinase activity in the test sample compared to the vehicle (dimethyl sulfoxide) reaction.

[10] = mouse, plasma, 0.21 mg/kg, CD-1 male mice
[11] = rat, plasma, SD rats, 1.9 mg/kg (Reference Example) / 1.8 mg/kg (Compound of Formula (I))
[12] = rat, plasma, SD rats, 0.51 mg/kg (Reference Example) / 0.49 mg/kg (Compound of Formula (I))
[13] = mouse, plasma, 3.1 mg/kg, CD-1 male mice

Crystal Form (XRPD) ([3]; 0 day, initial): Form C
Crystal Form (XRPD) ([3]; High humidity (40° C./75% relative humidity, open), 1 month): Form C
Crystal Form (XRPD) ([3]; High humidity (60° C./75% relative humidity, open), 1 month): Form C
Crystal Form (XRPD) ([3]; High humidity (room temperature/relative humidity 92.5%, open), 5th day): Form C
Crystal Form (XRPD) ([3]; High humidity (room temperature/relative humidity 92.5%, open), 10th day): Form C
Crystal Form (XRPD) ([3]; High temperature (60° C., open), 5th day): Form C
Crystal Form (XRPD) ([3]; High temperature (60° C., open), 10th day): Form C
Crystal Form (XRPD) ([3]; Strong light (5000 lx, airtight), 10th day): Form C
Hygroscopicity classification [4]: slightly hygroscopic (2% > ΔW % ≥ 0.2%)
ΔW (hygroscopic weight gain) ([4]; DVS): 0.262%
Structure (SMILES): CO[C@@H]1C[C@@H](CO)OC[C@@H]1Nc1ncnc2[nH]cc(C(=O)c3ccc(Oc4ccccc4)cc3Cl)c12 [Form C]
Relative stability compared with Form B, conclusion [1]: Conclusion: Compared with Form B, Form C is more stable.
T/C ([2]; 15 mg/kg PO QD × 21): 65.50%
TGI ([2]; 15 mg/kg PO QD × 21): 49.61%
Tumor volume (Day 0) ([2]; 15 mg/kg PO QD × 21): 182.02 ± 9.76 mm^3
Tumor volume (Day 20) ([2]; 15 mg/kg PO QD × 21): 471.07 ± 16.55 mm^3
T/C ([2]; 30 mg/kg PO QD × 21): 45.05%
TGI ([2]; 30 mg/kg PO QD × 21): 71.75%
Tumor volume (Day 0) ([2]; 30 mg/kg PO QD × 21): 180.91 ± 9.67 mm^3
Tumor volume (Day 20) ([2]; 30 mg/kg PO QD × 21): 342.95 ± 20.06 mm^3
T/C ([2]; 45 mg/kg PO QD × 21): 29.25%
TGI ([2]; 45 mg/kg PO QD × 21): 92.82%
Tumor volume (Day 0) ([2]; 45 mg/kg PO QD × 21): 180.19 ± 10.07 mm^3
Tumor volume (Day 20) ([2]; 45 mg/kg PO QD × 21): 221.38 ± 37.11 mm^3
Tumor inhibitory effect versus reference compound, conclusion ([2]; at the same dose): obviously better than that of reference compound
Tumor growth inhibition, conclusion ([2]; inhibitory effect positively correlated with dose): significantly inhibit tumor growth
Solid stability, conclusion ([3]; high temperature, high humidity and strong light conditions): Conclusion: The crystal form C of the compound of formula (I) has good stability under high temperature, high humidity and strong light conditions.

AUCu ([5]; 0.21 mg/kg, CD-1 male mice): 0.007 µM·h
AUC(0-inf) [5, 10]: 3.49 µM·h
C0 [5, 10]: 1040 nM
Vd [5, 10]: 0.7 L/kg
clearance [5, 10]: 2.01 mL/min/kg
half-life [5, 10]: 4.34 h
Unbound PPB ([6]; Table 12): 0.1%
Unbound PPB ([6]; Table 13): 0.1%
AUCu ([7]; SD rats): 0.005 µM·h
AUC(0-inf) [7, 11]: 5.03 µM·h
Cmax [7, 11]: 607 nM
half-life [7, 11]: 2.41 h
AUCu ([8]; SD rats): 0.0019 µM·h
AUC(0-inf) [8, 12]: 1.92 µM·h
C0 [8, 12]: 800 nM
Vd [8, 12]: 1.57 L/kg
clearance [8, 12]: 9.08 mL/min/kg
half-life [8, 12]: 2.02 h
AUCu ([9]; 3.1 mg/kg, CD-1 male mice): 0.0882 µM·h
AUC(0-inf) [9, 13]: 44.1 µM·h
Cmax [9, 13]: 3840 nM
half-life [9, 13]: 3.75 h
Unbound PPB (Unbound PPB (Mouse); Table 10): 0.2%
Unbound PPB (Unbound PPB (Mouse); Table 11): 0.2%
Structure (SMILES): O=C(c1ccc(Oc2ccccc2)cc1Cl)c1c[nH]c2ncnc(N[C@@H]3CC[C@@H](CO)OC3)c12 [Reference Example]
T/C ([2]; 45 mg/kg PO QD × 21): 42.45%
TGI ([2]; 45 mg/kg PO QD × 21): 74.47%
Tumor volume (Day 0) ([2]; 45 mg/kg PO QD × 21): 183.86 ± 9.48 mm^3
Tumor volume (Day 20) ([2]; 45 mg/kg PO QD × 21): 330.27 ± 19.35 mm^3

AUCu ([5]; 0.21 mg/kg, CD-1 male mice): 0.0124 µM·h
Inhibitory effect on BTK C481S mutation, conclusion (BTK^C481S): strong inhibitory effect
Unbound PPB ([6]; Table 12): 0.2%
Unbound PPB ([6]; Table 13): 0.2%
AUCu ([7]; SD rats): 0.0078 µM·h
AUCu ([8]; SD rats): 0.0034 µM·h
AUCu ([9]; 3.1 mg/kg, CD-1 male mice): 0.133 µM·h
Unbound PPB (Unbound PPB (Mouse); Table 10): 0.4%
Unbound PPB (Unbound PPB (Mouse); Table 11): 0.4%
Structure (SMILES): CO[C@@H]1C[C@@H](CO)OC[C@@H]1Nc1ncnc2[nH]cc(C(=O)c3ccc(Oc4ccccc4)cc3Cl)c12 [Compound of formula (I)]
Free drug concentration in mouse plasma, conclusion [5]: higher than that of the reference compound
Free drug concentration in rat plasma, conclusion [7]: higher than that of the reference compound
Free drug concentration in rat plasma, conclusion [8]: higher than that of the reference compound
Free drug concentration in mouse plasma, conclusion [9]: higher than that of the reference compound
